Measurements from patent US20260191874A1, “FUSED AMINO PYRIMIDINE COMPOUNDS FOR TREATMENT OF AUTISM SPECTRUM DISORDER, OBSESSIVE COMPULSIVE DISORDER AND TICS” (Ovid Therapeutics Inc., priority 2024, published 2026).

Columns and labels:
[1] = tested on: panel of 144 protein kinases; experiment: SelectScreen protein kinase panel; format: biochemical; conditions: 144 protein kinases incl. PKC isoforms, OSR1, SPAK, WNK
Method: Aliquots of HEK-293 cells expressing KCC2 were exposed to 30 μM SSA, heated from 37-55° C. The remaining level of soluble native KCC2 at each temperature was measured by immunoblotting and normalized to the level seen at 37° C. which was given a value of 1. […] This panel included protein kinase C isoforms, OSR1, SPAK (STK39) and with-no-lysine kinases (WNK), all of which phosphorylate KCC2 on multiple residues to indirectly modify its activity (Kahle et al., 2013, supra; Smalley et al., 2020, supra).

[2] = PK studies: brain and plasma levels by LC-MS/MS; format: in vivo, mice
acute brain slices = experiment: Acute brain slices exposed to 0-Mg
KCC2 = biological target: T1, KCC2 (Homo sapiens, UniProt Q9H2X9); experiment: Cell surface biotinylation of KCC2 in HEK-293 cells; format: cell-based; conditions: 15 min
T1 construct: expressed in transfected cells; host or cells: HEK-293 (ATCC CRL-1573)
T1 sequence (Q9H2X9 1-1116 isoform Q9H2X9-2): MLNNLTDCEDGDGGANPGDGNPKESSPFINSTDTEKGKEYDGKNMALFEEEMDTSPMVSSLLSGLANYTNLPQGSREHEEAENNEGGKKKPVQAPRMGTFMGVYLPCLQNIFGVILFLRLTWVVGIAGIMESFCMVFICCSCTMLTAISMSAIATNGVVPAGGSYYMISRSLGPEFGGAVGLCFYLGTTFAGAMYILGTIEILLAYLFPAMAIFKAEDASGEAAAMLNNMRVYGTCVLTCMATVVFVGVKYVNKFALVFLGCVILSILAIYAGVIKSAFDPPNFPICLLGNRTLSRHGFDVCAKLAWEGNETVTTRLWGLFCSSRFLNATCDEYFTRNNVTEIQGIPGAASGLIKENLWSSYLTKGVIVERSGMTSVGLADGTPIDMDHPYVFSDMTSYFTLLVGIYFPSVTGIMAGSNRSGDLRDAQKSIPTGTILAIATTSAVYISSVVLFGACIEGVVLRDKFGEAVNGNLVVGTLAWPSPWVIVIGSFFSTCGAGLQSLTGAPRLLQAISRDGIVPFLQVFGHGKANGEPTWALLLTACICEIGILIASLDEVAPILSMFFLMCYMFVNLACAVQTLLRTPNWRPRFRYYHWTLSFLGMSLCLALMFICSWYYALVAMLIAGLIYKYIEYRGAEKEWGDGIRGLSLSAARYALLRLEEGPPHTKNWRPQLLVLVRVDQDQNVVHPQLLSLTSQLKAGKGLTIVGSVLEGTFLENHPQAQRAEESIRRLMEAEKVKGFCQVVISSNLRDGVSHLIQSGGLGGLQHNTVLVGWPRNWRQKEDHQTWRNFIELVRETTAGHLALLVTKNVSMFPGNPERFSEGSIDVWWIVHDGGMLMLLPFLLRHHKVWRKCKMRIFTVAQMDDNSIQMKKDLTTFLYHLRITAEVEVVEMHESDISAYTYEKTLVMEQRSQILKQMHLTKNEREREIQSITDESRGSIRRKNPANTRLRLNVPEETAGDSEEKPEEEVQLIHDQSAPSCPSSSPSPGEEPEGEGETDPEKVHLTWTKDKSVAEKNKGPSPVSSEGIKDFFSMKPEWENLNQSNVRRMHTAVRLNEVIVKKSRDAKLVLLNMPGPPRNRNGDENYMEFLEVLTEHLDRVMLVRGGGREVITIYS
Method: Cell Culture and biotinylation. HEK-293 cells were purchased from ATCC (CRL-1573) and transfected with human KCC2 and GFP expression plasmids using Lipofectamine 2000. Cells were utilized for experimentation 48-72 h following transfection. Cells were biotinylated at 4° C. using NHS-Biotin. Following lysis and purification on immobilized avidin beads, cell surface and total fractions were subject to immunoblotting as outlined previously (Conway et al., 2017, supra).
The reliability of the biotinylation procedure was assessed via immunoblotting with antibodies against the cytosolic protein actin. Actin was present in the total lysates but was absent from the surface fractions (FIG. 2C).

[3] = design: species or system mice; conditions: in vivo

C[C@@H]1CN(c2nc3c(c(Nc4ccc(C5CCCCC5)cc4)n2)COC3)CCO1 [Compound A, (R)—N-(4-cyclohexylphenyl)-2-(2-methylmorpholino)-5,7-dihydrofuro[3,4-d]pyrimidin-4-amine]
effect on activity of kinase panel [1]: did not modify the activity
time by which accumulation in the brain was evident ([2]; 25 mg/kg IV bolus, mice): ≤ 30 min
time at which accumulation in brain was detected ([2]; 50 mg/kg SC): 30 min
time of maximal concentration in brain ([2]; 50 mg/kg SC): 4 h
neuronal Cl− accumulation and development of late recurrent discharges (LRDs) (acute brain slices): reduced
level of KCC2 on the plasma membrane (surface/total) (KCC2; 0.3 μM): 94.5±8.4 % of control
level of KCC2 on the plasma membrane (surface/total) (KCC2; 3 μM): 104.7±8.4 % of control
gross effects on mouse behavior [3]: no gross effects
total distance traveled in open field ([3]; mouse, sc, 50 mg/kg): 6134.2±235.3 cm
